The record followed here is US12275731B2, “Azaindole inhibitors of wild-type and mutant forms of LRRK2” (DANA-FARBER CANCER INSTITUTE, INC., priority 2018, dated 2025).

What all share (experiment): KinomeScan profiling
Common to all, as to format: binding

One assay concerns the target T1, ACVR2A (Homo sapiens, UniProt P27037).
T1 construct: purchased KinomeScan®
The settings on record: read-out: % control. In a few lines: (§1)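 Luminescence (RLU) was converted to percent of control, with DMSO set as 100% and a reference compound as 0%. Test compounds were run at 1 μM against 468 kinases. Kinases showing below 35% of control were scored as bound.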

Another assay addresses DAPK1 (Homo sapiens, UniProt P53355). The settings on record: DAPK1, 1 μM; read-out: % control. In a few lines:
as §1

The target of another assay is EGFR(E746-A750del) (Homo sapiens, UniProt P00533, DEL746-750). The settings on record: read-out: % control. In short, it runs like this: as §1
The target of a further assay is T2, NEK11 (Homo sapiens, UniProt Q8NG66).
T2 sequence (Q8NG66 1-645): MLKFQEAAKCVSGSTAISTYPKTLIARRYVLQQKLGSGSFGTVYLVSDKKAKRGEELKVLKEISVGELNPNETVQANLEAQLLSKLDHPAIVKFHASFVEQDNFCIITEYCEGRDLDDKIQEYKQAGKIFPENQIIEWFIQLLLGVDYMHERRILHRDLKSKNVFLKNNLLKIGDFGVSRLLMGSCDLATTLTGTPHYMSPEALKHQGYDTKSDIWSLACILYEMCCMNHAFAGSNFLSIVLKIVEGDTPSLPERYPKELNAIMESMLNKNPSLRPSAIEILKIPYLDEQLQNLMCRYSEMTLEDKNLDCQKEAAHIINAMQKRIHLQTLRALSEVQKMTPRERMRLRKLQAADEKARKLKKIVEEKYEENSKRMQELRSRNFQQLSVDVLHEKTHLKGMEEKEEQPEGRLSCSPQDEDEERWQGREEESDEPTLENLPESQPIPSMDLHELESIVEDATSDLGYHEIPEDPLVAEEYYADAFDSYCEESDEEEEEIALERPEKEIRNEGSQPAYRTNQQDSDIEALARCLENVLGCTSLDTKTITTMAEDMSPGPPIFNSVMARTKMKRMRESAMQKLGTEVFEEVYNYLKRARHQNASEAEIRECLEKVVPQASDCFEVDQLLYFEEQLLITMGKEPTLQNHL
The settings on record: NEK11, 1 μM; read-out: % control. In a few lines: as §1

For the next assay, the target named is PDGFRA (Homo sapiens, UniProt P16234). The settings on record: read-out: % control. In short, it runs like this:
as §1

The target of a further assay is PLK1 (Homo sapiens, UniProt P53350). The settings on record: PLK1, 1 μM; read-out: % control. In a few lines: as §1
Sequence of PLK1 (P53350 whole entry): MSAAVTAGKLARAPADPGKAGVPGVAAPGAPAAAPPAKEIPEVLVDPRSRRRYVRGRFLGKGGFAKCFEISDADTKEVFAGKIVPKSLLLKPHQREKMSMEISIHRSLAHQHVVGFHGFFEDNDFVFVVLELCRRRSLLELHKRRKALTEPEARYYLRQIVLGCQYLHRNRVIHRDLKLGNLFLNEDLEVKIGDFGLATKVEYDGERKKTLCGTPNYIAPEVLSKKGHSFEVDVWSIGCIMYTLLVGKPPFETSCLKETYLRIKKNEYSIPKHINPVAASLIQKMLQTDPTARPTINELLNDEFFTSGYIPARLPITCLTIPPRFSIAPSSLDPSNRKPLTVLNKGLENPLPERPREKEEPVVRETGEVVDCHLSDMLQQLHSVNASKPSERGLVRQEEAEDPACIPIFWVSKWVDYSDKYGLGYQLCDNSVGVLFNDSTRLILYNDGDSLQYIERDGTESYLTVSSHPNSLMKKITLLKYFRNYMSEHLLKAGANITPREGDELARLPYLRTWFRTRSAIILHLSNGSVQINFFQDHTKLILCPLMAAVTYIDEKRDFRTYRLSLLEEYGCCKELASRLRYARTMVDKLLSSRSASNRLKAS
The next assay addresses RET(V804M) (Homo sapiens, UniProt P07949, V804M). The settings on record: read-out: % control. In a few lines: as §1
Another assay addresses T3, TLK1 (Homo sapiens, UniProt Q9UKI8).
T3 sequence (Q9UKI8 1-766): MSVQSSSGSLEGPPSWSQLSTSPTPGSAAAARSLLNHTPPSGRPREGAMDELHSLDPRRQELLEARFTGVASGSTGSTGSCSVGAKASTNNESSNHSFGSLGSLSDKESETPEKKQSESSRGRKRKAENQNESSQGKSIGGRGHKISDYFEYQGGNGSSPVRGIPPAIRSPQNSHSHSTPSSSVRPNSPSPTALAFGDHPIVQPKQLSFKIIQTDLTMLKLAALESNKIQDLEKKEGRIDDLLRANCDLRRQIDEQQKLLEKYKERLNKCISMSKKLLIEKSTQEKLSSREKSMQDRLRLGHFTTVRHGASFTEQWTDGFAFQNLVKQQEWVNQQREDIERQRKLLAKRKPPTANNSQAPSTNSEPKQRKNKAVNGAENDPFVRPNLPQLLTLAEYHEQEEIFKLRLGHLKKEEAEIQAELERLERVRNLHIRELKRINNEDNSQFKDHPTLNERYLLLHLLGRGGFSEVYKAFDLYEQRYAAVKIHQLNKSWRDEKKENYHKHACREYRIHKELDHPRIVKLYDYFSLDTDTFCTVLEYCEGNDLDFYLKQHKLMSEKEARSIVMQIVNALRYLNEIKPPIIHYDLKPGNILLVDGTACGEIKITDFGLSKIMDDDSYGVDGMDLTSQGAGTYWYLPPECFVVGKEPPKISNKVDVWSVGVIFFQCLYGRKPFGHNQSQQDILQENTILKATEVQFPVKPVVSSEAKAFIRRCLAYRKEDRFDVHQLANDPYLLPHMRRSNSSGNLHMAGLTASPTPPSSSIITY
The settings on record: TLK1, 1 μM; read-out: % control. In short, it runs like this: as §1

Sequence of RET(V804M) (P07949 29-1114 V804M): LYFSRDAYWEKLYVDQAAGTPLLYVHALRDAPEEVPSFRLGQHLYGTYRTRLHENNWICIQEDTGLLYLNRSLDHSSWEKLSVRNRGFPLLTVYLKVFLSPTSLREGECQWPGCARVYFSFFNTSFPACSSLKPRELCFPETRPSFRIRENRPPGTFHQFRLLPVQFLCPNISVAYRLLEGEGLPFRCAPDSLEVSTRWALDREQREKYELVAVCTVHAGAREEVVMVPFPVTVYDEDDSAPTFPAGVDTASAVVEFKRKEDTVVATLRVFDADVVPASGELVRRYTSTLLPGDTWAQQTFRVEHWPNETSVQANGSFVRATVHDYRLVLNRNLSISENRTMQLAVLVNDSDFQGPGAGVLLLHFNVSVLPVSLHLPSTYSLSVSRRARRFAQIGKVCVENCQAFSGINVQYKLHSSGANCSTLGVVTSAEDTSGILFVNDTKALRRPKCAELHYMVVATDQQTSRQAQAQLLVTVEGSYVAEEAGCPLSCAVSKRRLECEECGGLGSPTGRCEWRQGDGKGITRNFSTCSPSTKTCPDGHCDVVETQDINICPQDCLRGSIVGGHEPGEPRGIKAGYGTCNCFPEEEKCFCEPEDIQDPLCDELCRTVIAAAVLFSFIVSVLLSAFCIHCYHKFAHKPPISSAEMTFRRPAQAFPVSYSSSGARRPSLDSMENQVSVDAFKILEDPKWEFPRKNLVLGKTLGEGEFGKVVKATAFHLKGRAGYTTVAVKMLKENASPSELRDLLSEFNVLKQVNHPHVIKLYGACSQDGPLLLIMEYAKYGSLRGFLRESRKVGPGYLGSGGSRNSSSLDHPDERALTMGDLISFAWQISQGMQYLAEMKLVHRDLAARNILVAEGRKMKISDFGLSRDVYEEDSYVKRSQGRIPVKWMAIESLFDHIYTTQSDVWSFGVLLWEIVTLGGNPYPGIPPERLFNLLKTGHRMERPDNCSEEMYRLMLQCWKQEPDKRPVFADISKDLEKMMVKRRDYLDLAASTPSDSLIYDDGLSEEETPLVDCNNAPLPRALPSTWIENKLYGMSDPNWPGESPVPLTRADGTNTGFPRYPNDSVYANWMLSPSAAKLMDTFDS
T1 sequence (P27037 20-513): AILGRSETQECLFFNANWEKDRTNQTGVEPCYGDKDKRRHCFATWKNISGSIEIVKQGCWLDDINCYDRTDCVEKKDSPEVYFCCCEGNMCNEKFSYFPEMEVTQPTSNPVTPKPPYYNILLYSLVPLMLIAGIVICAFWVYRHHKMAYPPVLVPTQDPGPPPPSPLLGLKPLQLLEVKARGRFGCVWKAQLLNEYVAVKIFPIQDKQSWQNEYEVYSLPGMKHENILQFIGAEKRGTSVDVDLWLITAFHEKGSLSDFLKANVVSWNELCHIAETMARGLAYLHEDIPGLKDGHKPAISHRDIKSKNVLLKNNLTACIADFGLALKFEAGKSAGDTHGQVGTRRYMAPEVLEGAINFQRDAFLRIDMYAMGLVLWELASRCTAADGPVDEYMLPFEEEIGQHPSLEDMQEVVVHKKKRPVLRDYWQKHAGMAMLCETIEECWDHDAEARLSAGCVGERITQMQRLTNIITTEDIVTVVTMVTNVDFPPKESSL
Sequence of PDGFRA (P16234 24-1089): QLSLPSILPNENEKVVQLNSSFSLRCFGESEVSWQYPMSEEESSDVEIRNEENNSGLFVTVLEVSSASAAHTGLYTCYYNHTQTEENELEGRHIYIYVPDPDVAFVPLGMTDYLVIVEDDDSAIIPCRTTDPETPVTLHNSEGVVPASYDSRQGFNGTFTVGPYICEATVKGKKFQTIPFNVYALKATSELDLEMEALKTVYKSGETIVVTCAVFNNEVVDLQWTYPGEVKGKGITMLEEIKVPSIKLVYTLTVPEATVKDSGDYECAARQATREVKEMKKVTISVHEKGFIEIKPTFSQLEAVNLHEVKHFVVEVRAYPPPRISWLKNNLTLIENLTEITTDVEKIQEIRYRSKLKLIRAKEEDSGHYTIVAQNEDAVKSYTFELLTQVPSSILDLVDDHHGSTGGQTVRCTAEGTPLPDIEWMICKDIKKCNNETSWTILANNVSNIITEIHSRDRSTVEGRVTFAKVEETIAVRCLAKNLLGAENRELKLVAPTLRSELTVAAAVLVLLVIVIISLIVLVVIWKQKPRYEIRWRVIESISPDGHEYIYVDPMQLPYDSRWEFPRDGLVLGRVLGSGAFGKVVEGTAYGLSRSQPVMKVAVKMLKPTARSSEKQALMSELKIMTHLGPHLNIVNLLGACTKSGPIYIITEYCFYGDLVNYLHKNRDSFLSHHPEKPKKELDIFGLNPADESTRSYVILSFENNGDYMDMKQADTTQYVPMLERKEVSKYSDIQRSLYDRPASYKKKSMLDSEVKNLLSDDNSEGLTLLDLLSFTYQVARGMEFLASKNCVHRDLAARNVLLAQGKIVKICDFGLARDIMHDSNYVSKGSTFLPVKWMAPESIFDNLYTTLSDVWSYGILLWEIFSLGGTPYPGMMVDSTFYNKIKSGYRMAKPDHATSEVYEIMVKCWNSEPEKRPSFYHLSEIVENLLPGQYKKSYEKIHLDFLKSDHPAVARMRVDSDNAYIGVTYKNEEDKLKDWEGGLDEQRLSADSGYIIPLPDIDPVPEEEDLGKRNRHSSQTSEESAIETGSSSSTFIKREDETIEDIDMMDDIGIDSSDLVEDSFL
Sequence of DAPK1 (P53355 whole entry): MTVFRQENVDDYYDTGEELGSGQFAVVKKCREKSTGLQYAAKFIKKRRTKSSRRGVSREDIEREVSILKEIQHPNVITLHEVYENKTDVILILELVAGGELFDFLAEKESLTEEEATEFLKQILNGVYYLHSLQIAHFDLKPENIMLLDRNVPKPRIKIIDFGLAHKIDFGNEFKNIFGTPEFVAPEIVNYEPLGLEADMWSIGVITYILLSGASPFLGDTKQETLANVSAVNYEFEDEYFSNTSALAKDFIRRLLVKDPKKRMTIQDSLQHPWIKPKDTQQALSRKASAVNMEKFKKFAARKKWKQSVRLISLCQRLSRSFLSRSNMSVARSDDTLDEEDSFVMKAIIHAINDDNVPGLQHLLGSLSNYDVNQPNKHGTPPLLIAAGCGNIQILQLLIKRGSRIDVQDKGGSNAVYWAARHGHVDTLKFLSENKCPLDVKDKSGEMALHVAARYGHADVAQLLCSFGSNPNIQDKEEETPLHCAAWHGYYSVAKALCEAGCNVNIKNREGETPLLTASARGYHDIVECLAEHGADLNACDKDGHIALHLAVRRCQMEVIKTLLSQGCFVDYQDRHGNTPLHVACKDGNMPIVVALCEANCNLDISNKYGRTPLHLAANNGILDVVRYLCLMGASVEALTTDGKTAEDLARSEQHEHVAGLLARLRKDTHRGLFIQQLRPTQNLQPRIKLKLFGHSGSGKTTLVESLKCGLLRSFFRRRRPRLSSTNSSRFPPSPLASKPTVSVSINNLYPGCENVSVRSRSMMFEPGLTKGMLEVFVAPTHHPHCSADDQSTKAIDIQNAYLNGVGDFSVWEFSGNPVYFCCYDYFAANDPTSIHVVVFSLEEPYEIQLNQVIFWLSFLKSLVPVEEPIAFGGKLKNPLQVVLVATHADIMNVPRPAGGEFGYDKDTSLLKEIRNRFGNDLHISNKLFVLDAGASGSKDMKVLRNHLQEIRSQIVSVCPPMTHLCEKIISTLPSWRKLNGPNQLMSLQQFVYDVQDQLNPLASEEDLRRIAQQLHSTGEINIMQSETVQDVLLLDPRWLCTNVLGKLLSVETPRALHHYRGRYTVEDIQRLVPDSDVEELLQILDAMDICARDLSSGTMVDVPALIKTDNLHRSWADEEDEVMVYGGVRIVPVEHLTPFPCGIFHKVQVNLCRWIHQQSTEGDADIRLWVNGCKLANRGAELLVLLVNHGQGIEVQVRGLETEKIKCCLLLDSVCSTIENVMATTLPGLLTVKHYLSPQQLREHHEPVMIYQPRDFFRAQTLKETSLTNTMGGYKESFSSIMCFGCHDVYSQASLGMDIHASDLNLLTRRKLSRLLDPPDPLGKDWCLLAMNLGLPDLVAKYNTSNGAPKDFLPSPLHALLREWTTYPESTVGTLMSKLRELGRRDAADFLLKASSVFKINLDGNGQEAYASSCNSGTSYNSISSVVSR

Regarding `CNc1c(-c2cnn([C@H]3CCN(C(C)=O)C[C@@H]3F)c2)cnc2[nH]cc(Cl)c12` [Compound 77, 1-((3S,4S)-4-(4-(3-chloro-4-(methylamino)-1H-pyrrolo[2,3-b]pyridin-5-yl)-1H-pyrazol-1-yl)-3-fluoropiperidin-1-yl)ethan-1-one], the remaining binding at 1 µM amounted to 99% on ACVR2A; 73% at DAPK1; 100% at EGFR(E746-A750del); 97% at NEK11; 11% on PDGFRA; 65% on PLK1. The remaining binding at 1 µM at RET(V804M) amounted to 52%; on TLK1 it was 95%.
On to `CNc1c(-c2ccc(C(=O)N3CCC(N4CCOCC4)CC3)cc2)cnc2[nH]cc(Cl)c12` [Compound 96, (4-(3-chloro-4-(methylamino)-1H-pyrrolo[2,3-b]pyridin-5-yl)phenyl)(4-morpholinopiperidin-1-yl)methanone], for which the remaining binding at 1 µM was 97% at ACVR2A; 74% on DAPK1; 93% at EGFR(E746-A750del); 96% at NEK11; 45% at PDGFRA; 64% at PLK1. The remaining binding at 1 µM came out at 61% on RET(V804M) and 95% on TLK1.
As for `O=C(c1ccc(-c2cnc3[nH]cc(Cl)c3c2NC2CCCC2)cc1)N1CCC(N2CCOCC2)CC1` [Compound 101, (4-(3-chloro-4-(cyclopentylamino)-1H-pyrrolo[2,3-b]pyridin-5-yl)phenyl)(4-morpholinopiperidin-1-yl)methanone], the remaining binding at 1 µM on ACVR2A is 95%; at DAPK1 it was 80%; on EGFR(E746-A750del) it was 97%; at NEK11 it was 100%; on PDGFRA, 92%; at PLK1, 98%. Further, the remaining binding at 1 µM on RET(V804M) turned out to be 99%; on TLK1, 90%.
